# Assay results as given in patent publication US20080221074A1, “Drug Screen and Treatment Method” (priority 2006, published 2008).
# Like-named read-outs stand apart in the source and are kept apart here.
# What was measured:
# NF-κB = experiment: inhibition of NF-κB activation in NF-κB-bla THP-1 cells after LPS stimulation; format: cell-based, human
# Excerpt: Inhibition of NF-κB in vitro. […] Activation of NF-κB increases expression of a number of genes that mediate inflammation. This protocol used human THP-1 cells, which are human mononuclear blood cells with a monocyte phenotype. The cell line, referred to as NF-κB-bla THP-1, contained a β-lactamase reporter gene under the control of the NF-kB response element (Invitrogen, CellSensor™, product No. K1176). In this cell line, the β-lactamase reporter gene is stably integrated in the THP-1 cells. This cell line was used to detect agonists or antagonists of the NF-κB signaling pathway. These NF-κB-bla THP-1 cells respond to the presence of tumor necrosis factor alpha (TNFα) or bacterial lipopolysaccharide (LPS) by increased expression of the β-lactamase reporter gene. The level of β-lactamase enzyme activity was measured by fluorescence resonance energy transfer ratiometric detection. TNFα and LPS are both potent inflammation-inducing agents that activate NF-κB in THP1 cells. In this assay, compounds that decrease NF-κB activity, and thus β-lactamase, in the presence of TNFα or LPS are exerting an anti-inflammation activity.
# The NF-κB-bla THP-1 cells were maintained by passaging or feeding as needed. […] The cells were plated at 20,000 cells/well in a 384-well Black-wall, clear bottom assay plates (Costar#3712-TC low fluorescence background plates) approximately 24 hours before adding either TNFα at 10 ng/mL or LPS at 0.2 ng/mL to activate NF-κB.
# The assays were usually conducted 2-4 times for each compound and the values shown below are averages for each compound.
# [1] = test system: carrageenan-λ induced pleurisy; experiment: carrageenan-λ induced lung (pleural cavity) inflammation; format: in vivo, CD1 male mice; conditions: exudate 4 h after
# Excerpt: Treatment of lung inflammation. Three compounds, 3β,16α-dihydroxy-17-oxoandrostane, 3α,16β,17β-trihydroxyandrostane and 3α,16α,17α-trihydroxyandrostane were used to treat inflammation in mice essentially as described (D. Auci et al., Ann. New York Acad. Sci. 1051:730-742 2005). Five to 8 week old CD1 male mice (Charles River, Calco, Italy) were used for the study. The animals were housed in a controlled environment and provided with standard rodent chow and water. Animal care was in compliance with applicable regulations on protection of animals. Mice were allocated into one of the following groups: (1) mice treated with 2% carrageenan-k in saline (carrageenan-λ treated control group), (2) mice treated with 0.1 mg, 0.01 mg or 0.001 mg 3β,16α-dihydroxy-17-oxoandrostane by subcutaneous (s.c.) injection 24 h and 1 h before carrageenan-λ administration, (3) mice treated with 0.1 mg, 0.01 mg or 0.001 mg of 3α,16α,17α-trihydroxyandrostane by s.c. injection 24 and 1 h before carrageenan; (4) mice treated with 0.1 mg, 0.01 mg or 0.001 mg […],16β,17β-trihydroxyandrostane by s.c. injection 24 h and 1 h before carrageenan-λ administration; (5) mice treated with vehicle (0.1% carboxymethylcellulose, 0.9% saline, 2% tween 80, 0.05% phenol) s.c. 24 h and 1 h before carrageenan-λ administration; (6) mice treated with rabbit anti-mouse polyclonal anti-TNF-α antibody (200 μg) given as an intraperitoneal bolus 24 h and 1 h before carrageenan-λ administration (positive control group); and (7) sham-operated mice that were not treated with carrageenan-λ. Each group consisted of 10 mice. All treatments were given in a final volume of 100 μL. Lung (pleural cavity) inflammation was induced as follows. The mice were anaesthetised with isoflurane and a skin incision was made at the level of the left sixth intercostal space. The underlying muscle was dissected and either 0.1 mL saline (control) or 0.1 mL saline containing 2% λ-carrageenan was injected into the pleural cavity. The carrageenan-λ is a potent inducer of inflammation, which is manifested in this protocol by accumulation of fluid and neutrophils in the pleural cavity. The incision was closed with a suture and the animals were allowed to recover.
# At 4 h after the injection of carrageenan-λ, the animals were euthanized by exposure to CO2. The chest was carefully opened and the pleural cavity rinsed with 1 mL of saline solution containing heparin (5 U/mL) and indomethacin (10 μg/mL). The exudate and washing solution were removed by aspiration and the total volume measured. Any exudate contaminated with blood was discarded. The amount of exudate was calculated by subtracting the injected 1 mL volume from the total pleural cavity volume that was recovered. The neutrophils in the exudate were suspended in phosphate-buffer saline and counted with an optical microscope in a Burker's chamber after Trypan Blue staining. The results were analysed by one-way ANOVA followed by a Bonferroni post-hoc test for multiple comparisons. A p-value less than 0.05 was considered significant. For statistical analysis each group was compared to the control group of mice that were challenged with carrageenan-k and received no other treatment.
# The table below describes the number of neutrophils from the treated animal groups relative to untreated control animals that were exposed to carrageenan-λ, but not treated with anything else (negative control group). The neutrophil number for the negative control group was set at 100% and other groups were compared to this.
# [2] = test system: human MG-63 osteosarcoma cell line; experiment: reversal of dexamethasone effects in MG-63 osteoblasts; format: cell-based; conditions: for reversal of the decrease in osteoprotegerin synthesis: 30 nM dexamethasone, compound concentration stated with each value (17α-ethynyl triol: 1 nM)
# EAE = experiment: PLP-induced EAE, treatment from clinical onset; format: in vivo, female SJL mice; conditions: for course of EAE compared to vehicle-treated mice / mean cumulative score, treatment period: 0.1 mg q.d. po from clinical onset; for mean cumulative score, treatment period: day 1 to 30; for mean cumulative score, follow-up period: day 31 to day 54, post treatment
# Protocol: The protocol for conducting the EAE animal model was described in (D. Auci et. al., Ann. NY. Acad. Sci. USA, 1051:730-42, 2005). Female SJL mice (6-8 week old, average body weight of 25 g) obtained from Charles-River were kept under standard laboratory conditions (non specific pathogen germ free) with ad libitum food and water and were allowed to adapt one week to their environment before commencing the study. […] EAA was induced with 200 μL of a 1:1 emulsion of 75 μg proteolipid protein (PLP) and 6 mg/mL Mycobacterium tuberculosis H37RA in complete Freund's adjuvant (CFA). The 200 μL injection was divided among four sites that drained into the auxiliary and inguinal lymphnodes. Pertussis toxin was used as a co-adjuvant and was administered i.p. at 200 ng/mouse on day zero and day two post immunization. Groups were treated with 0.1 mg of compound in 100 μL vehicle, or with vehicle alone, q.d. po (oral gavage) starting at clinical onset of disease and continuing through to day 30 post immunization. […] Clinical grading was carried out by an observer unaware of the treatment: 0=no illness, 1=flaccid tail, 2=moderate paraparesis, 3=severe paraparesis, 4=moribund state, 5=death.
# [3] = LPS stimulation, 50% of the compound's maximum inhibition, averages, read-out: IC50
molecule,measurement,setting,value
"3α,17α-ethynylandrostane-3α/β,17β-diol",IC50,NF-κB; [3],0.2 nM
"C[C@]12CC[C@H]3[C@@H](CCC4C[C@H](O)CC[C@@]43C)[C@@H]1C[C@H](O)[C@@H]2O (stereo partly drawn) [3α,16β,17β-trihydroxyandrostane]",number of neutrophils relative to negative control group (set at 100%),[1]; 0.001 mg s.c. 24 h and 1 h before carrageenan-λ,95%
same,number of neutrophils relative to negative control group (set at 100%),[1]; 0.01 mg s.c. 24 h and 1 h before carrageenan-λ,50%
same,number of neutrophils relative to negative control group (set at 100%),[1]; 0.1 mg s.c. 24 h and 1 h before carrageenan-λ,42%
"C[C@]12CC[C@H]3[C@@H](CCC4=C[C@H](O)CC[C@@]43C)[C@@H]1CC[C@@H]2O [3α,17β-dihydroxyandrost-4-ene]",dexamethasone induced 11β-HSD mRNA,[2]; similar protocols,decrease
same,dexamethasone-induced suppression of IL-8 and IL-6,[2]; similar protocols,statistically significant reversal
"C[C@]12CC[C@H]3[C@@H](CC=C4C[C@](O)(C(F)(F)C(F)(F)F)CC[C@@]43C)[C@@H]1CC[C@@H]2O [3α-pentafluoroethylandrost-5-ene-3β,17β-diol]",maximum inhibition of NF-κB,NF-κB,50%
"C[C@]12CC[C@H]3[C@@H](CC=C4C[C@](O)(C(F)(F)F)CC[C@@]43C)[C@@H]1CC[C@@H]2O [3α-trifluoromethylandrost-5-ene-3β,17β-diol]",course of EAE compared to vehicle-treated mice,EAE,significantly improved course of EAE
same,"mean cumulative score, treatment period",EAE,11.2±4.8
same,"mean cumulative score, follow-up period",EAE,10.8±10.3
"C[C@]12CC[C@H](O)CC1=C[C@H](O)[C@@H]1[C@@H]2CC[C@@]2(C)[C@H]1CC[C@]2(C)O [3β,7β,17β-trihydroxy-17α-methylandrost-5-ene]",reversal of the decrease in osteoprotegerin synthesis,[2],normal osteoprotegerin levels at 10 nM
"CC12CCC(O)CC1=CC(O)C1C2CCC2(C)C1CCC2(O)C(F)(F)F (stereo not drawn) [3β,7β,17β-trihydroxy-17α-trifluoromethylandrost-5-ene]",reversal of the decrease in osteoprotegerin synthesis,[2],normal or basal osteoprotegerin levels at 1 μM compound
"CC12CCC(O)CC1=CC(=O)C1C2CCC2(C)C1CCC2(C)O (stereo not drawn) [3β,17β-dihydroxy-7-oxo-17α-methylandrost-5-ene]",reversal of the decrease in osteoprotegerin synthesis,[2],increased osteoprotegerin levels at 100 nM
"C[C@]12CC[C@H](O)C[C@@H]1CC[C@@H]1[C@@H]2CC[C@]2(C)[C@@H](O)C(=NO)C[C@@H]12 [5α-androstane-3β,17β-diol-16-oxime]",course of EAE compared to vehicle-treated mice,EAE,very similar to that observed in the vehicle-treated mice
C[C@]12CCCCC1=CC[C@@H]1[C@@H]2CC[C@]2(C)C(=O)[C@H](F)C[C@@H]12 [16α-fluoroandrost-5-ene-17-one],IC50,"NF-κB; Homo sapiens, THP-1",0.03 nM
C[C@]12CC[C@H](O)C[C@@H]1CC[C@@H]1[C@@H]2CC[C@]2(C)C(=O)[C@H](I)C[C@@H]12 [16α-iodoepiandrosterone],IC50,NF-κB; [3],1.9 nM
C[C@]12CC[C@H](O)C[C@@H]1CC[C@@H]1[C@@H]2CC[C@]2(C)C(=O)[C@@H](Br)C[C@@H]12 [16β-bromoepiandrosterone],maximum inhibition of NF-κB,NF-κB,100%
same,IC50,NF-κB; [3],600 nM
C#C[C@]1(O)CC[C@H]2[C@@H]3CCC4=CC(=O)CC[C@]4(C)[C@H]3CC[C@@]21C [17α-ethynylandrost-4-ene-3-one-17β-ol],maximum inhibition of NF-κB,NF-κB,80%
"C[C@]12CC[C@H](O)CC1=CC[C@@H]1[C@@H]2CC[C@@]2(C)[C@H]1CC[C@@]2(O)C(F)(F)F [17α-trifluoromethylandrost-5-ene-3β,17β-diol]",course of EAE compared to vehicle-treated mice,EAE,significantly improved course of EAE
"C#C[C@@]1(O)CC[C@H]2[C@@H]3[C@@H](O)C=C4C[C@@H](O)CC[C@]4(C)[C@H]3CC[C@@]21C [17β-ethynylandrost-5-ene-3β,7β,17α-triol]","mean cumulative score, treatment period",EAE,14.9±17.6
same,"mean cumulative score, follow-up period",EAE,18.4±20.6
same,EAE incidence,EAE; end of the follow-up period,85.7%
same,EAE incidence,EAE; end of the treatment period,57.1%
"Cc1cc(C)c(/C=C2\C(=O)Nc3ccccc32)[nH]1 [SU5416, Z-3-[(2,4-dimethylpyrrol-5-yl)methylidenyl]-2-indolinone, reference compound]",course of EAE compared to vehicle-treated mice,EAE,very similar to that observed in the vehicle-treated mice
"C[C@]12CC[C@H]3[C@@H]([C@H](O)C=C4C[C@@H](O)CC[C@@]43C)[C@@H]1C[C@@H](O)[C@@H]2O [androst-5-ene-3β,7α,16α,17β-tetrol]",reversal of the decrease in osteoprotegerin synthesis,[2],near normal osteoprotegerin levels at 10 nM
"C[C@]12CC[C@H]3[C@@H](C(=NO)C=C4C[C@@H](O)CC[C@@]43C)[C@@H]1CC[C@@H]2O [androst-5-ene-3β,17β-diol-7-oxime]",reversal of the decrease in osteoprotegerin synthesis,[2],partially reversed the decrease in osteoprotegerin
